# Data reported in patent US6214860A, “Synergistic antitumor composition containing a naphthalensulphonic acid derivative” (Pharmacia & Upjohn S.p.A., priority 1997, dated 2001).
# “And” between values parts separate entries of the source, which are not always exact repeats. Identical values can stand only once. Counter-ions that a name gives are not always drawn. Like-named read-outs stand apart in the source and are kept apart here.
# Legend:
# [1] = test system: M5076 murine reticulosarcoma cells; assay: In vivo antitumor activity in mice implanted with M5076 tumor cells; design: species or system Mice C57BL/6; details: days 1, 4, 7 and 11; for A.U.C. % inhib. (inhibition of tumor growth): one week after last treatment; for TGD (tumor growth delay): time to reach one gram
# Description: (§1) The combinations were assayed in vitro on M5076 murine reticulosarcoma cells and in vivo on the same tumor cells implanted intramuscularly.
# The antitumor activity was calculated in terms of:
# % AUC: inhibition of tumor growth
# T/C %: percentage of median increase in survival time
# The A.U.C. (area under the curve) of the tumor growth was calculated by using the trapezoidal method, and is referred to the measurement of tumor growth performed one week after the last treatment. The percentage of inhibition (% A.U.C.) was calculated using the following formula: [formula]
# The percentage of increase in survival time (T/C% ) was calculated using the following formula: [formula]
# Mice were monitored according to guidelines and sacrificed when tumor weight exceeded 10% body weight. Tumor growth delay (TGD) is the time, in days, to reach one gram of tumor weight in treated animals as compared to control animals.
# Evaluation of statistical significance was performed as follows: Student's Test for cytotoxic activity, Two-Way Anova for increase in survival time (T/C %) with combined treatment in comparison to the increase exerted separately by the two drugs, Tukey Test for tumor weight reduction (AUC % inhibition) with combined treatment in comparison to the reduction exerted separately by the two drugs.
# The criterion for statistical significance was the 0.01 level ( )
# [2] = test system: M5076 murine reticulosarcoma cells; assay: In vitro antiproliferative activity (% cell growth vs untreated control); assay type: cell-based; details: for antiproliferative activity in the presence of PNU 145156E: in words, PNU 145156E 50000 ng/ml vs 0 ng/ml
# Description: as §1
# [3] = days 1, 4, 7 and 11
# Description: Mice C57BL/6 were implanted with M5076 murine reticulosarcoma cells. PNU 145156E was administered ip 2 h prior to cytotoxic drugs administered iv starting treatment 24 h after tumor implant. Treatments were performed at days 1, 4, 7 and 11.
# The toxicological evaluation was performed in terms of body weight loss and spleen and liver reduction.
# [4] = CIS 6 mg/kg iv, combination: + PNU 145156E 100 mg/kg ip 2 h prior
# [5] = cytotoxic 40 ng/ml + PNU 145156E 50000 ng/ml, 72 h, 37° C.
# [6] = VP-16 15 mg/kg iv, combination: + PNU 145156E 100 mg/kg ip 2 h prior
# [7] = CPT-11 60 mg/kg iv, combination: + PNU 145156E 100 mg/kg ip 2 h prior
# [8] = PNU 145156E alone 100 mg/kg ip, single-agent arm of each of Tables 2-6
# [9] = 9AC 2.5 mg/kg iv, combination: + PNU 145156E 100 mg/kg ip 2 h prior
# [10] = 9AC 3 mg/kg iv, combination: + PNU 145156E 100 mg/kg ip 2 h prior
# [11] = 9AC 3.5 mg/kg iv, combination: + PNU 145156E 100 mg/kg ip 2 h prior
structure (smiles),measurement,setting,value
"N.N.[Cl][Pt][Cl] [CIS, cisplatin]",T/C % (median increase in survival time),[1]; [4],130%
same,Tumor weight,[1]; [4],1.1 ± 0.1 gr
same,A.U.C. % inhib. (inhibition of tumor growth),[1]; [4],75%
same,TGD (tumor growth delay),[1]; [4],11 days
same,% cell growth ± S.E.,"[2]; cytotoxic 8 ng/ml + PNU 145156E 50000 ng/ml, 72 h, 37° C.",83 ± 7%
same,% cell growth ± S.E.,"[2]; cytotoxic 8 ng/ml, PNU 145156E 0 ng/ml, 72 h, 37° C.",91 ± 3%
same,% cell growth ± S.E.,[2]; [5],46 ± 3%
same,% cell growth ± S.E.,"[2]; cytotoxic 40 ng/ml, PNU 145156E 0 ng/ml, 72 h, 37° C.",52 ± 7%
same,% cell growth ± S.E.,"[2]; cytotoxic 200 ng/ml + PNU 145156E 50000 ng/ml, 72 h, 37° C.",4 ± 1%
same,% cell growth ± S.E.,"[2]; cytotoxic 200 ng/ml, PNU 145156E 0 ng/ml, 72 h, 37° C.",9 ± 5%
same,antiproliferative activity in the presence of PNU 145156E,[2],unchanged in the presence of PNU 145156E
"COc1cc([C@@H]2c3cc4c(cc3[C@@H](O[C@@H]3O[C@@H]5CO[C@@H](C)O[C@H]5[C@H](O)[C@H]3O)[C@H]3COC(=O)[C@H]23)OCO4)cc(OC)c1O [VP-16, etoposide]",T/C % (median increase in survival time),[1]; [6],130%
same,Tumor weight,[1]; [6],2.86 ± 0.8 gr
same,A.U.C. % inhib. (inhibition of tumor growth),[1]; [6],90%
same,TGD (tumor growth delay),[1]; [6],12 days
same,activity at 0.004 µg/mL,"[2]; Mus musculus, M5076, cytotoxic 4 ng/ml, PNU 145156E 0 ng/ml, 72 h, 37° C., read-out: % cell growth ± S.E.",96 ± 8%
same,activity at 0.02 µg/mL,"[2]; Mus musculus, M5076, cytotoxic 20 ng/ml, PNU 145156E 0 ng/ml, 72 h, 37° C., read-out: % cell growth ± S.E.",77 ± 5%
same,activity at 0.1 µg/mL,"[2]; Mus musculus, M5076, cytotoxic 100 ng/ml, PNU 145156E 0 ng/ml, 72 h, 37° C., read-out: % cell growth ± S.E.",15 ± 7%
same,% cell growth ± S.E.,"[2]; cytotoxic 4 ng/ml + PNU 145156E 50000 ng/ml, 72 h, 37° C.",91 ± 2%
same,% cell growth ± S.E.,"[2]; cytotoxic 20 ng/ml + PNU 145156E 50000 ng/ml, 72 h, 37° C.",66 ± 8%
same,% cell growth ± S.E.,"[2]; cytotoxic 100 ng/ml + PNU 145156E 50000 ng/ml, 72 h, 37° C.",9 ± 4%
same,antiproliferative activity in the presence of PNU 145156E,[2],unchanged in the presence of PNU 145156E
same,Toxic/total mice,[3]; [6],0/9
CCc1c2c(nc3ccc(O)cc13)-c1cc3c(c(=O)n1C2)COC(=O)[C@]3(O)CC [SN-38],activity at 0.0065 µg/mL,"[2]; Mus musculus, M5076, 72 h, cytotoxic 6.5 ng/ml, PNU 145156E 0 ng/ml, 72 h, 37° C., read-out: % cell growth ± S.E.",75 ± 5%
same,activity at 0.0125 µg/mL,"[2]; Mus musculus, M5076, 72 h, cytotoxic 12.5 ng/ml, PNU 145156E 0 ng/ml, 72 h, 37° C., read-out: % cell growth ± S.E.",19 ± 2%
same,activity at 0.035 µg/mL,"[2]; Mus musculus, M5076, 72 h, cytotoxic 35 ng/ml, PNU 145156E 0 ng/ml, 72 h, 37° C., read-out: % cell growth ± S.E.",5 ± 1%
same,% cell growth ± S.E.,"[2]; cytotoxic 6.5 ng/ml + PNU 145156E 50000 ng/ml, 72 h, 37° C.",74 ± 7%
same,% cell growth ± S.E.,"[2]; cytotoxic 12.5 ng/ml + PNU 145156E 50000 ng/ml, 72 h, 37° C.",25 ± 7%
same,antiproliferative activity in the presence of PNU 145156E,[2],unchanged in the presence of PNU 145156E
"CCc1c2c(nc3ccc(OC(=O)N4CCC(N5CCCCC5)CC4)cc13)-c1cc3c(c(=O)n1C2)COC(=O)[C@]3(O)CC [CPT-11, irinotecan]",T/C % (median increase in survival time),[1]; [7],215%
same,Tumor weight,[1]; [7],0.05 ± 0.2 gr
same,A.U.C. % inhib. (inhibition of tumor growth),[1]; [7],100%
same,TGD (tumor growth delay),[1]; [7],34 days
same,Toxic/total mice,[3]; [7],0/8
"Cn1cc(NC(=O)Nc2cc(C(=O)Nc3cc(C(=O)Nc4ccc5cc(S(=O)(=O)O)cc(S(=O)(=O)O)c5c4)n(C)c3)n(C)c2)cc1C(=O)Nc1cc(C(=O)Nc2ccc3cc(S(=O)(=O)O)cc(S(=O)(=O)O)c3c2)n(C)c1 [PNU 145156E, 7'-(carbonyl-bis(imino-N-methyl-4,2-pyrrolecarbonyl-imino(N-methyl-4,2-pyrrole)carbonylimino))bis(1,3-naphtalen-disulfonic acid)tetrasodium salt]",T/C % (median increase in survival time),[1]; [8],121% and 141% and 148%
same,Tumor weight,[1]; [8],1.45 ± 0.7 gr and 2.63 ± 0.8 gr and 1.4 ± 0.7 gr and 1.7 ± 0.65 gr
same,A.U.C. % inhib. (inhibition of tumor growth),[1]; [8],88% and 85% and 90% and 75%
same,TGD (tumor growth delay),[1]; [8],9 days and 10 days and 16 days
same,activity at 50 µg/mL,"[2]; Mus musculus, M5076, 72 h, PNU 145156E 50000 ng/ml alone (cytotoxic 0 ng/ml), 72 h, 37° C., read-out: % cell growth ± S.E.",85%
same,% cell growth ± S.E.,"[2]; PNU 145156E 50000 ng/ml alone (cytotoxic 0 ng/ml), 72 h, 37° C., 4320 min",88 ± 3% and 92 ± 5% and 92 ± 14% and 89 ± 19%
same,Toxic/total mice,[3]; [8],0/10 and 0/9 and 0/8
"CC[C@@]1(O)C(=O)OCc2c1cc1n(c2=O)Cc2cc3c(N)cccc3nc2-1 [9-AC, 9-aminocamptothecin]",T/C % (median increase in survival time),[1]; [9],121%
same,Tumor weight,[1]; [9],2.4 ± 0.9 gr
same,A.U.C. % inhib. (inhibition of tumor growth),[1]; [9],45%
same,TGD (tumor growth delay),[1]; [9],5 days
same,T/C % (median increase in survival time),[1]; [10],125%
same,Tumor weight,[1]; [10],2.13 ± 0.8 gr
same,A.U.C. % inhib. (inhibition of tumor growth),[1]; [10],48%
same,TGD (tumor growth delay),[1]; [10],6 days
same,T/C % (median increase in survival time),[1]; [11],128%
same,Tumor weight,[1]; [11],1.58 ± 0.6 gr
same,A.U.C. % inhib. (inhibition of tumor growth),[1]; [11],68%
same,TGD (tumor growth delay),[1]; [11],8 days
same,activity at 0.0025 µg/mL,"[2]; Mus musculus, M5076, 72 h, cytotoxic 2.5 ng/ml, PNU 145156E 0 ng/ml, 72 h, 37° C., read-out: % cell growth ± S.E.",88 ± 10%
same,activity at 0.01 µg/mL,"[2]; Mus musculus, M5076, 72 h, cytotoxic 10 ng/ml, PNU 145156E 0 ng/ml, 72 h, 37° C., read-out: % cell growth ± S.E.",28 ± 2%
same,activity at 0.04 µg/mL,"[2]; Mus musculus, M5076, 72 h, cytotoxic 40 ng/ml, PNU 145156E 0 ng/ml, 72 h, 37° C., read-out: % cell growth ± S.E.",7 ± 2%
same,% cell growth ± S.E.,"[2]; cytotoxic 2.5 ng/ml + PNU 145156E 50000 ng/ml, 72 h, 37° C.",76 ± 6%
same,% cell growth ± S.E.,"[2]; cytotoxic 10 ng/ml + PNU 145156E 50000 ng/ml, 72 h, 37° C.",29 ± 9%
same,% cell growth ± S.E.,[2]; [5],8 ± 3%
same,antiproliferative activity in the presence of PNU 145156E,[2],unchanged in the presence of PNU 145156E
same,Toxic/total mice,[3]; [9],0/10
same,Toxic/total mice,[3]; [10],0/10
same,Toxic/total mice,[3]; [11],1/10
